From ChEMBL document CHEMBL1201862, “PubChem BioAssay data set” (2004)
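Exposure lasted 48 hours, with cells grown in 96-well plates and compounds tested at five concentrations. GI50 is the concentration that inhibits growth by half.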 Active and inactive are the calls of the source. Rule as the data show it: active = GI50 up to about 1.1 µM and inactive = higher.

Key:
Experiment in all cases: inhibition of tumour cell growth, NCI panel, 48 h
OVCAR-8 = test system: OVCAR-8
Malme-3M = test system: Malme-3M
UACC-62 = test system: UACC-62
PC-3 = test system: PC-3
HCT-116 = test system: HCT-116
IGROV-1 = test system: IGROV-1
HL-60 = test system: HL-60
OVCAR-4 = test system: OVCAR-4
LOX IMVI = test system: LOX IMVI
OVCAR-5 = test system: OVCAR-5
786-0 = test system: 786-0
SK-OV-3 = test system: SK-OV-3
EKVX = test system: EKVX
NCI-H23 = test system: NCI-H23
NCI-H226 = test system: NCI-H226
BT-549 = test system: BT-549
SW-620 = test system: SW-620
CAKI-1 = test system: CAKI-1
COLO 205 = test system: COLO 205

## Cc1nc2ccccc2c(=O)n1NC(=O)c1ccccc1[N+](=O)[O-]
OVCAR-8
  GI50: > 10 µM (inactive)
Malme-3M
  GI50: > 100 µM (inactive)
UACC-62
  GI50: > 100 µM (inactive)
PC-3
  GI50: > 100 µM (inactive)
HCT-116
  GI50: > 100 µM (inactive)
IGROV-1
  GI50: > 100 µM (inactive)
HL-60
  GI50: > 100 µM (inactive)
OVCAR-4
  GI50: > 100 µM (inactive)
LOX IMVI
  GI50: > 100 µM (inactive)
OVCAR-5
  GI50: > 100 µM (inactive)
786-0
  GI50: > 100 µM (inactive)
SK-OV-3
  GI50: > 100 µM (inactive)
EKVX
  GI50: 71.4 µM (inactive)
NCI-H23
  GI50: > 100 µM (inactive)
NCI-H226
  GI50: > 100 µM (inactive)
BT-549
  GI50: > 100 µM (inactive)
SW-620
  GI50: > 100 µM (inactive)

## CC(C)(C)C1CC[C@H](O)[C@H]([C@@H](O)CC2CC(=O)N(c3ccccc3)C(=O)C2)C1 (stereo partly drawn)
OVCAR-8
  GI50: 50.7 µM (inactive)
Malme-3M
  GI50: 65.5 µM (inactive)
UACC-62
  GI50: 26.6 µM (inactive)
PC-3
  GI50: 91.8 µM (inactive)
HCT-116
  GI50: 60.5 µM (inactive)
IGROV-1
  GI50: > 100 µM (inactive)
HL-60
  GI50: 28.1 µM (inactive)
OVCAR-4
  GI50: 57.5 µM (inactive)
LOX IMVI
  GI50: 49.3 µM (inactive)
OVCAR-5
  GI50: > 100 µM (inactive)
786-0
  GI50: > 100 µM (inactive)
EKVX
  GI50: 70 µM (inactive)
NCI-H23
  GI50: > 100 µM (inactive)
NCI-H226
  GI50: > 100 µM (inactive)
BT-549
  GI50: 29.4 µM (inactive)
SW-620
  GI50: > 100 µM (inactive)
CAKI-1
  GI50: > 100 µM (inactive)

## CCc1[nH]nc(C(N)=O)c1/N=N/N(C)C
COLO 205
  GI50: 98.9 µM (inactive)
OVCAR-8
  GI50: 73.1 µM (inactive)
Malme-3M
  GI50: 78.3 µM (inactive)
UACC-62
  GI50: 34.4 µM (inactive)
PC-3
  GI50: > 100 µM (inactive)
HCT-116
  GI50: 72.1 µM (inactive)
IGROV-1
  GI50: 34.8 µM (inactive)
HL-60
  GI50: 9.62 µM (inactive)
OVCAR-4
  GI50: > 100 µM (inactive)
LOX IMVI
  GI50: 43.2 µM (inactive)
786-0
  GI50: 89.7 µM (inactive)
SK-OV-3
  GI50: 91.6 µM (inactive)
EKVX
  GI50: 57.5 µM (inactive)
NCI-H23
  GI50: 54.1 µM (inactive)
NCI-H226
  GI50: 84.1 µM (inactive)
BT-549
  GI50: 21.8 µM (inactive)
SW-620
  GI50: > 100 µM (inactive)
CAKI-1
  GI50: 24.8 µM (inactive)

## CCn1c(SCC(=O)NNC(=S)Nc2ccc(F)cc2)nc2ccccc2c1=O
COLO 205
  GI50: > 100 µM (inactive)
OVCAR-8
  GI50: > 100 µM (inactive)
Malme-3M
  GI50: > 100 µM (inactive)
UACC-62
  GI50: 58.7 µM (inactive)
PC-3
  GI50: 66.1 µM (inactive)
HCT-116
  GI50: > 100 µM (inactive)
IGROV-1
  GI50: > 100 µM (inactive)
HL-60
  GI50: > 100 µM (inactive)
OVCAR-4
  GI50: 63 µM (inactive)
LOX IMVI
  GI50: > 100 µM (inactive)
OVCAR-5
  GI50: > 100 µM (inactive)
786-0
  GI50: > 100 µM (inactive)
SK-OV-3
  GI50: > 100 µM (inactive)
EKVX
  GI50: > 100 µM (inactive)
NCI-H23
  GI50: > 100 µM (inactive)
NCI-H226
  GI50: > 100 µM (inactive)
BT-549
  GI50: > 100 µM (inactive)
SW-620
  GI50: > 100 µM (inactive)

## CCOC(=O)c1c(N)sc2c1C(C(=O)OCC)CC2 (stereo not drawn)
COLO 205
  GI50: > 100 µM (inactive)
OVCAR-8
  GI50: > 100 µM (inactive)
Malme-3M
  GI50: 74.1 µM (inactive)
UACC-62
  GI50: 91.4 µM (inactive)
PC-3
  GI50: 34.4 µM (inactive)
HCT-116
  GI50: 48.4 µM (inactive)
IGROV-1
  GI50: 44.7 µM (inactive)
HL-60
  GI50: 31.5 µM (inactive)
OVCAR-5
  GI50: > 100 µM (inactive)
786-0
  GI50: > 100 µM (inactive)
EKVX
  GI50: > 100 µM (inactive)
NCI-H23
  GI50: > 100 µM (inactive)
NCI-H226
  GI50: > 100 µM (inactive)
BT-549
  GI50: 72.3 µM (inactive)
SW-620
  GI50: > 100 µM (inactive)

## CC[C@]1(Cc2ccc(OC)c(OC)c2)C=[N+]([O-])O[C@H](OC2CCCC2(c2ccccc2)c2ccccc2)[C@@H]1OC(C)=O (stereo partly drawn)
COLO 205
  GI50: 3.35 µM (inactive)
OVCAR-8
  GI50: 2.67 µM (inactive)
Malme-3M
  GI50: 2.03 µM (inactive)
UACC-62
  GI50: 2.68 µM (inactive)
PC-3
  GI50: 4.66 µM (inactive)
HCT-116
  GI50: 2.08 µM (inactive)
IGROV-1
  GI50: 2.08 µM (inactive)
HL-60
  GI50: 3.36 µM (inactive)
OVCAR-4
  GI50: 4.84 µM (inactive)
LOX IMVI
  GI50: 2 µM (inactive)
OVCAR-5
  GI50: 16.7 µM (inactive)
786-0
  GI50: 1.6 µM (inactive)
SK-OV-3
  GI50: 14.5 µM (inactive)
EKVX
  GI50: 5.89 µM (inactive)
NCI-H23
  GI50: 5.25 µM (inactive)
BT-549
  GI50: 8.47 µM (inactive)
SW-620
  GI50: 3.44 µM (inactive)
CAKI-1
  GI50: 2.95 µM (inactive)

## c1ccc2c(c1)ccc1cc3cc(NCCCCNc4ccc5nc6c(ccc7ccccc76)cc5c4)ccc3nc12
COLO 205
  GI50: 1.69 µM (inactive)
OVCAR-8
  GI50: 0.167 µM (active)
Malme-3M
  GI50: 1.55 µM (inactive)
UACC-62
  GI50: 1.67 µM (inactive)
PC-3
  GI50: 1.31 µM (inactive)
HCT-116
  GI50: 0.176 µM (active)
IGROV-1
  GI50: 1.41 µM (inactive)
OVCAR-4
  GI50: 2.22 µM (inactive)
LOX IMVI
  GI50: 1.71 µM (inactive)
OVCAR-5
  GI50: 0.261 µM (active)
786-0
  GI50: 0.291 µM (active)
SK-OV-3
  GI50: 2.37 µM (inactive)
EKVX
  GI50: 2.03 µM (inactive)
NCI-H23
  GI50: 2 µM (inactive)
NCI-H226
  GI50: 1.73 µM (inactive)
BT-549
  GI50: 2 µM (inactive)
SW-620
  GI50: 0.195 µM (active)
CAKI-1
  GI50: 2.01 µM (inactive)

## CCN(CC(COc1ccc2c(c1)[n+]([O-])nc(N)[n+]2[O-])OC(C)=O)C(C)=O (stereo not drawn)
COLO 205
  GI50: 32.2 µM (inactive)
OVCAR-8
  GI50: 42.1 µM (inactive)
UACC-62
  GI50: 29.6 µM (inactive)
PC-3
  GI50: 76.9 µM (inactive)
HCT-116
  GI50: 78.7 µM (inactive)
IGROV-1
  GI50: 29.1 µM (inactive)
HL-60
  GI50: 80.4 µM (inactive)
OVCAR-4
  GI50: 50.5 µM (inactive)
LOX IMVI
  GI50: 58.3 µM (inactive)
OVCAR-5
  GI50: > 100 µM (inactive)
786-0
  GI50: 93.1 µM (inactive)
SK-OV-3
  GI50: 15.2 µM (inactive)
EKVX
  GI50: 52.2 µM (inactive)
NCI-H23
  GI50: 49.5 µM (inactive)
NCI-H226
  GI50: > 100 µM (inactive)
BT-549
  GI50: > 100 µM (inactive)
SW-620
  GI50: > 100 µM (inactive)
CAKI-1
  GI50: > 100 µM (inactive)

## Clc1ccc2nc3c(c(-c4ccccc4)nn3-c3ccccc3)c(-c3ccccc3)c2c1
COLO 205
  GI50: > 100 µM (inactive)
OVCAR-8
  GI50: > 100 µM (inactive)
Malme-3M
  GI50: > 100 µM (inactive)
UACC-62
  GI50: > 100 µM (inactive)
PC-3
  GI50: > 100 µM (inactive)
HCT-116
  GI50: > 100 µM (inactive)
IGROV-1
  GI50: > 100 µM (inactive)
HL-60
  GI50: > 100 µM (inactive)
OVCAR-4
  GI50: > 100 µM (inactive)
LOX IMVI
  GI50: > 100 µM (inactive)
OVCAR-5
  GI50: > 100 µM (inactive)
786-0
  GI50: > 100 µM (inactive)
SK-OV-3
  GI50: > 100 µM (inactive)
EKVX
  GI50: > 100 µM (inactive)
NCI-H23
  GI50: > 100 µM (inactive)
NCI-H226
  GI50: > 100 µM (inactive)
BT-549
  GI50: > 100 µM (inactive)
SW-620
  GI50: > 100 µM (inactive)

## CCCCCCC1OC23OC1CCC2C(O)CCC3O (stereo not drawn)
COLO 205
  GI50: > 100 µM (inactive)
OVCAR-8
  GI50: > 100 µM (inactive)
Malme-3M
  GI50: > 100 µM (inactive)
UACC-62
  GI50: > 100 µM (inactive)
PC-3
  GI50: > 100 µM (inactive)
HCT-116
  GI50: > 100 µM (inactive)
IGROV-1
  GI50: > 100 µM (inactive)
HL-60
  GI50: > 100 µM (inactive)
OVCAR-4
  GI50: > 100 µM (inactive)
LOX IMVI
  GI50: > 100 µM (inactive)
OVCAR-5
  GI50: > 100 µM (inactive)
786-0
  GI50: > 100 µM (inactive)
EKVX
  GI50: > 100 µM (inactive)
NCI-H23
  GI50: > 100 µM (inactive)
NCI-H226
  GI50: > 100 µM (inactive)
BT-549
  GI50: > 100 µM (inactive)
SW-620
  GI50: > 100 µM (inactive)
CAKI-1
  GI50: > 100 µM (inactive)

## CC1(C)CC(=O)C2=C(C1)NC(SCC(=O)O)=C(C#N)C2c1ccc(Br)cc1 (stereo not drawn)
COLO 205
  GI50: > 100 µM (inactive)
OVCAR-8
  GI50: > 100 µM (inactive)
UACC-62
  GI50: > 100 µM (inactive)
PC-3
  GI50: > 100 µM (inactive)
HCT-116
  GI50: > 100 µM (inactive)
IGROV-1
  GI50: > 100 µM (inactive)
HL-60
  GI50: > 100 µM (inactive)
OVCAR-4
  GI50: > 100 µM (inactive)
LOX IMVI
  GI50: > 100 µM (inactive)
OVCAR-5
  GI50: > 100 µM (inactive)
786-0
  GI50: > 100 µM (inactive)
SK-OV-3
  GI50: > 100 µM (inactive)
EKVX
  GI50: > 100 µM (inactive)
NCI-H23
  GI50: > 100 µM (inactive)
NCI-H226
  GI50: > 100 µM (inactive)
BT-549
  GI50: > 100 µM (inactive)
SW-620
  GI50: > 100 µM (inactive)
CAKI-1
  GI50: > 100 µM (inactive)
